Results reported in patent US9034876B2, “Treatment of chronic inflammation with a 1,2,4-triazolo [1,5a] pyridine derivative” (Cephalon, Inc., priority 2010, dated 2015).

Experiments:
[1] = tested on: collagen-antibody-induced arthritis (CAIA); assay: Collagen-antibody-induced arthritis (CAIA) model, paw size and clinical score; format: in vivo, female DBA/1 mice; conditions: 55 mg/kg p.o. b.i.d., day 13
Procedure: Female DBA/1 mice were injected i.v. (intravenous) with purified anti-collagen type II antibodies, then given 25 μg of LPS (lipopolysaccharide), i.p. (intraperitoneal), three days later to induce arthritis by day 5. Mice that met the arthritis criteria score of 1 per paw were entered into the study. Compound A was administered orally, b.i.d. (twice daily), for all doses tested; Dex (Dexamethasone) was administered at 1.5 mg/kg three times a week, i.p.; and vehicle (PEG400+1% DMSO) was administered orally.
Anti-collagen type II antibody was delivered to mice i.v. and oral administration of Compound A was initiated upon meeting minimum score requirements and entry into dosage groups. Compound A was administered at 10, 30 or 55 mg/kg p.o. twice daily for two weeks total. Vehicle groups were treated with PEG400 in 1% DMSO; dexamethasone (Dex) was used as a glucocorticoid standard of care reference. Dex was given i.p. in saline alone, three times a week (every 48 hours) at 1.5 mg/kg of total body mass.
Acclimated mice were randomized, pre-bled and measured for baseline inflammation before any studies were initiated. On day 0, DBA/1 female mice were injected i.v. with 100 μl of a saline solution containing 1.5 mg of a 10 mg/ml cocktail of arthritogenic monoclonal antibodies directed against different epitopes of collagen type II (Chondrex, Redmond, Wash.) suspended in saline. […]

[2] = target: EGFR (Homo sapiens, UniProt P00533); assay: Kinase profiling panel, EGFR; format: binding; conditions: 1 μM
Chain of EGFR (P00533 25-1210, species assumed): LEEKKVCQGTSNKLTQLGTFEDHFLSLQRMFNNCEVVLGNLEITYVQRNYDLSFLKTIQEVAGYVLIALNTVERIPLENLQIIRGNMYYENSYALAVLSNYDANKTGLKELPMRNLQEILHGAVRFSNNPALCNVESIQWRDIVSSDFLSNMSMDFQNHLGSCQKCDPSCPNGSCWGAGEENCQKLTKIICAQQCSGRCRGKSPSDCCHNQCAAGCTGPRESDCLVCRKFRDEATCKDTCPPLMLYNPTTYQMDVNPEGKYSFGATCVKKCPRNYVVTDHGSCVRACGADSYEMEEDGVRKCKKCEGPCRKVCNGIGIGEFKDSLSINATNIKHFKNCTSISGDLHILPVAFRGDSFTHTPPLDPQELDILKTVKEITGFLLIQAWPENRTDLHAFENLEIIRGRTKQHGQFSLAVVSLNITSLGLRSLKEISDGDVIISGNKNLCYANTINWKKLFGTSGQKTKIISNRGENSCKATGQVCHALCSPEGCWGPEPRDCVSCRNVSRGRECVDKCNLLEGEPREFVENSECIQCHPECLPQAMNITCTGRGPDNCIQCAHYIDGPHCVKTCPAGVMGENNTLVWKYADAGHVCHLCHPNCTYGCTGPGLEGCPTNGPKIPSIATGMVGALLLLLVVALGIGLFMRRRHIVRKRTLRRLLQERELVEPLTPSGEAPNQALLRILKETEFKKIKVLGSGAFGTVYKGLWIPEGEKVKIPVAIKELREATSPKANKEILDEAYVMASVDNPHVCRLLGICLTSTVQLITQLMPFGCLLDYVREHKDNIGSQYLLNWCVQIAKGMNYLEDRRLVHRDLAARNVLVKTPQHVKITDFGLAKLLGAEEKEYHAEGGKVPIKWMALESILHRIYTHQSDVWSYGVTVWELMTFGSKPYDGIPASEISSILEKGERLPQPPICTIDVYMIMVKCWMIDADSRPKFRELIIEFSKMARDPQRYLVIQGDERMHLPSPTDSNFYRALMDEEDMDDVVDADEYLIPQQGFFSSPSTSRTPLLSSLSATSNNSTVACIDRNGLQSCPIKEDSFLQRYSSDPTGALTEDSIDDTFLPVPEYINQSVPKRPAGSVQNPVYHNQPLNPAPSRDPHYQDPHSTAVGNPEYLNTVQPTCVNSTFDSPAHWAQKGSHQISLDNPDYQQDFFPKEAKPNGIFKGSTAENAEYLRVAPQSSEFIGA
Procedure: The ability of Compound A to inhibit other members of the kinome was also assessed using binding assays for a panel of 402 kinases [25].

[3] = CAIA model, total body mass; format: in vivo, female DBA/1 mice; conditions: all doses
Procedure: FIG. 3E: Depicts the effect of treatment on total body mass in a CAIA model
Acclimated mice were randomized, pre-bled and measured for baseline inflammation before any studies were initiated. On day 0, DBA/1 female mice were injected i.v. with […] of a saline solution containing 1.5 mg of a 10 mg/ml cocktail of arthritogenic monoclonal antibodies directed against different epitopes of collagen type II (Chondrex, Redmond, Wash.) suspended in saline. On day 3, mice were injected with 100 μl of 50 μg of E. coli 0111:B4 LPS (0.5 mg/ml stock) (Chondrex, Redmond, Wash.) i.p. and provided with gel food during recovery. Two days post-LPS treatment monitoring of arthritic paws began; peak arthritis usually occurred 2-3 days following LPS treatment. […] Arthritis clinical score tables can be found described elsewhere. […] All samples were kept at −80° C. until ready to assay. At about 4 weeks, mice were harvested for spleen, serum and arthritic paws for STAT and cytokine quantitation and histological analysis. […]

[4] = CIA model, body mass; format: in vivo, female DBA/1 mice
Procedure: FIGS. 9A and 9B: Depict the effect of treatment on body mass and serum anti-CII autoantibody concentration in a CIA model.
Female DBA/1 mice were injected with purified collagen type II in CFA i.d. (intradermal) then boosted with collagen type II in IFA s.c. (subcutaneous) on day 21 followed by a day 28 LPS injection i.p. (intraperitoneal) to induce arthritis (CIA). Mice that scored a ‘1’ or better for each paw were considered arthritic and entered into the study, treatments started after several days of full arthritis. Compound A was provided orally, b.i.d., for each dose tested; Dex was provided i.p. at 1.5 mg/kg three times a week; vehicle (PEG400+1% DMSO) was provided orally, b.i.d.

[5] = tested on: collagen-induced arthritis (CIA); assay: Collagen-induced arthritis (CIA) model, paw size and clinical score; format: in vivo, female DBA/1 mice
Procedure: Female DBA/1 mice were injected with purified collagen type II in CFA i.d. (intradermal), then boosted with collagen type II in IFA, s.c., (subcutaneous) on day 21 followed by a day 28 LPS injection i.p. to induce arthritis (CIA). Mice that scored a ‘1’ or better for each paw were considered arthritic and entered into the study. Treatments started after 7-10 days of arthritis induction. Compound A was provided orally, b.i.d., for all doses tested; Dex was administered i.p. at 1.5 mg/kg, three times a week; and vehicle (PEG400+1% DMSO) was provided orally, b.i.d.
Compound A was then tested in a more physiologic and progressive disease model of RA (i.e., collagen-induced arthritis (CIA) model). […] Early model optimization studies consistently generated robust collagen-induced-arthritis phenotypes that were absent from control treated, non-diseased, animals. CIA arthritic animals were separated into groups and treated with Compound A at 30, 55 and 100 mg/kg doses b.i.d, p.o.; vehicle or the standard-of-care reference drug, Dex at 1.5 mg/kg, which were administered as described above. […] The faster onset of swelling reduction noted for the 100 mg/kg treatment group may be explained by differences in the mechanism of action of Compound A.
Acclimated mice were randomized and pre-bled and measured for baseline inflammation before any studies were initiated. On day 0, DBA/1 female mice were given a primary immunization with equal volumes of bovine type II collagen (CII), 2 mg/ml stock in 0.05 M acetic acid, (Chrondrex, Redmond, Wash.) suspended in CFA, 5 mg/ml (Chondrex, Redmond, Wash.) emulsion yielding an injection of 100 μg of CII at 100 μl into the base of the tail intradermally (i.d.). At day 21 post primary immunization, mice were re-challenged with CII emulsified in Incomplete Freund's Adjuvant (IFA) (Thermo Scientific, Rockford, Ill.) s.c. on the flank of the mouse. On day 28 each mouse received an i.p. injection of E. coli 0111:B4 LPS (0.5 mg/ml stock) (Chondrex, Redmond, Wash.) at 10 μg in 100 μl of saline (25-50 μg of LPS was reduced to 10 μg per mouse to reduce mortality associated with endotoxic shock). Around day 35 the mice begin to show signs of paw inflammation and disease. Before starting treatment mice were randomized, grouped, scored, ear tagged and pre-bled to determine baseline disease. […] Arthritis clinical scores were the same as that used to score the CAIA model (see CAIA methods). Vehicle consisted of PEG400 plus 1% DMSO given orally, twice daily (b.i.d). […] All samples were kept at −80° C. until ready to assay. At about day 60 mice were harvested for spleen, plasma and arthritic paws for STAT and cytokine quantitation and histological analysis.

[6] = CIA, 30, 55 and 100 mg/kg b.i.d. p.o.

CN1CCN(c2cccc(Nc3nc4c(-c5ccc(S(C)(=O)=O)cc5)cccn4n3)c2)CC1 [Compound A, [8-(4-Methanesulfonyl-phenyl)-[1,2,4]triazolo[1,5-a]pyridin-2-yl]-[3-(4-methyl-piperazin-1-yl)-phenyl]-amine]
drop in mean paw thickness or size compared to vehicle [1]: 1.3 fold | reduction in total clinical score compared to vehicle [1]: 2.4 fold | activity against EGFR in profiling panel [2]: lacked activity | total body mass [3]: not significantly different from that of vehicle-treated animals | body mass [4]: did not significantly change | suppression of paw swelling versus Dex ([5]; CIA, 100 mg/kg): near identical suppression of paw swelling | onset of swelling reduction versus Dex ([5]; CIA, 100 mg/kg, day 43): more rapid drop in swelling as compared to the Dex treatment group | clinical score [5, 6]: reduction in clinical score in a dose-dependent manner | mean paw size [5, 6]: clear reduction in the mean paw size
